Measured values taken from patent US9856212B1, “Biphenyl compounds and applications thereof” (Shenyang Sinochem Agrochemicals R&D Co., Ltd., priority 2017, dated 2018).

Columns and labels:
Type in all cases: in vivo
[1] = tested on: adult spider mites (Tetranychuscinnabarinus); experiment: Test against adult spider mite, greenhouse spray on bean leaves; settings: after 72 h
Procedure: The adult spider mites (Tetranychuscinnabarinus) were put into two true leaves of bean plants. After the number of mites were investigated, the solution of certain concentrations of test compounds was sprayed by using a sprinkler. Three replicates were set for each treatment. Then the leaves were maintained in standard observation room. After 72 h the survival mites in each leaf were observed, and mortality of the mites was determined.

[2] = tested on: deutonymph of spider mite (Tetranychuscinnabarinus); experiment: Test against deutonymph of spider mite, greenhouse spray; settings: after 72 h
Procedure: Ten healthy female adult spider mites (Tetranychuscinnabarinus) were put into two true leaves of bean plants. The adult spider mites were removed after 24 h and the eggs were to be continued incubating. After ten days, the number of deutonymph were investigated and recorded. The solution of certain concentrations of test compounds was sprayed by using a sprinkler. Three replicates were set for each treatment. Then the deutonymph of spider mites were maintained in standard observation room. After 72 h, the survival mites in each leaf were observed, and mortality of the mites was determined.

[3] = tested on: citrus red mite (Panonychuscitri); experiment: Field trial against citrus red mite (Jiangxi, China); settings: orange orchard
Procedure: The trial was carried out in a 2-year-old Shatang orange orchard in Ganzhou city Jiangxi province, trifoliate orange trees were selected as stocks, the intervals between two plants was 1.50×2.50 m, the average height was 1.45 m and the crown width was 1.30 m. Two trees were selected in each plot, with random arrangement and 4 replications. Compound 1 (10% SC) was set at three different doses (100 mg/L, 50 mg/L and 25 mg/L), spirodiclofen (29% SC) was set at one dose (50 mg/L), and pyridaben (20% EC) was set at one dose (100 mg/L). MatabiSupergreen 16 Knapsack Sprayer 16 Liter was used to spray evenly with 2 L of spraying volume for each plant. The plants were treated once in May at that time, adults, nymphs, eggs of citrus red mite all existed, with adults/eggs=1/1.2. During the day the plants were treated, and the weather was good with the average temperature at 24° C. The first three days after treatment were all clear days. The number of mites was investigated before treatment and on the 1st, 3rd, 7th, 14th, 22nd and 28th day after treatment respectively. Two trees of each plot were investigated according to the five directions of the tree crown (east, south, west, north and central), 5 leaves in each direction were investigated to calculate the number of living mites, with 50 leaves each plot. The decline rate of mite population and corrected efficacy were calculated according to formulas below: The decline rate of mite population (%)=[(the average number of mite on each leaf before treatment−the average number of mite on each leaf after treatment)/the average number of mite on each leaf before treatment]×100. Corrected efficacy (%)=[(the decline rate of mite population in treated area−the decline rate of mite population in untreated area)/(100−the decline rate of mite population in untreated area)]×100.

[4] = tested on: egg of spider mite (Tetranychuscinnabarinus); experiment: Test against egg of spider mite, greenhouse spray; settings: eggs, 5 days
Procedure: Two true leaves of bean plants were taken and one true leaf was removed. Then ten healthy female adult spider mites were put into the true leaf. The adult spider mites were removed after 24 h and the eggs were investigated. The solution of certain concentrations of test compounds was sprayed by using a sprinkler. Three replicates were set for each treatment. The untreated eggs were all incubated after 5 days. The unincubation of treated eggs in leaf was observed, and incubation inhibition rate of the eggs was determined.

spider mites = experiment: Test of systemic activity against spider mite through root absorption; settings: root absorption 24 h, mites on bean leaves, after 72 h
Procedure: The high acaricidal compound 1 were dissolved in acetone, and then diluted with 0.1% aqueous solution of Tween 80 to form test solution in different concentration. Three replicates were set for each treatment. Water is blank control. The 10 ml compound 1 solution was added into the tube. Two true leaves bean plants were taken and the soil in the root was removed. The bean plant was dipped into the test solution in different concentration. After absorbing 24 h, 30 to 50 spider mites were put onto the true leaves. Then the bean plants were maintained in observation room at 25±1° C. After 72 h, the death and survival mites in each leaf was observed, the mortality of the mites and systemic activity was determined.

[5] = 100 mg/L, the 1st day after treatment
[6] = 100 mg/L, the 3rd day after treatment
[7] = 100 mg/L, the 7th day after treatment
[8] = 100 mg/L, the 14th day after treatment
[9] = 100 mg/L, the 22nd day after treatment
[10] = 100 mg/L, the 28th day after treatment
[11] = 50 mg/L, the 1st day after treatment
[12] = 50 mg/L, the 3rd day after treatment
[13] = 50 mg/L, the 7th day after treatment
[14] = 50 mg/L, the 14th day after treatment
[15] = 50 mg/L, the 22nd day after treatment
[16] = 50 mg/L, the 28th day after treatment

SMILES: Cc1cc(F)c(-c2cc([S+]([O-])CC(F)F)c(C)cc2F)cc1SCC(F)F (centres unmarked) [Compound 63]
- Mortality (%) ([1]; 100 mg/L): 100%

SMILES: Cc1cc(F)c(-c2cc(SCC(F)F)c(C)cc2F)cc1SCC(F)F [Compound 62]
- Mortality (%) ([1]; 100 mg/L): 100%

SMILES: CC(C)(C)c1ccc(CSc2cnn(C(C)(C)C)c(=O)c2Cl)cc1 [pyridaben, reference compound]
- Mortality (%) ([2]; 0.25 mg/L): 25%
- Mortality (%) ([2]; 0.5 mg/L): 60%
- Mortality (%) ([2]; 1 mg/L): 84%
- Corrected efficacy (%) [3, 5]: 0%
- Corrected efficacy (%) [3, 6]: 65%
- Corrected efficacy (%) [3, 7]: 90%
- Corrected efficacy (%) [3, 8]: 93%
- Corrected efficacy (%) [3, 9]: 92%
- Corrected efficacy (%) [3, 10]: 95%

SMILES: Cc1cc(F)c(-c2cc([S+]([O-])CC(F)(F)F)c(C)cc2F)cc1SCC(F)(F)F (centres unmarked) [Compound 2]
- Mortality (%) ([1]; 100 mg/L): 100%

SMILES: Cc1cc(F)c(-c2cc(SCC(F)(F)F)c(C)cc2F)cc1SCC(F)(F)F [Compound 1]
- Incubation inhibition rate (%) ([4]; 0.25 mg/L): 18%
- Incubation inhibition rate (%) ([4]; 1 mg/L): 34%
- Incubation inhibition rate (%) ([4]; 5 mg/L): 100%
- Mortality (%) ([2]; 0.25 mg/L): 64%
- Mortality (%) ([2]; 0.5 mg/L): 97%
- Mortality (%) ([2]; 1 mg/L): 100%
- Mortality (%) (spider mites; 50 mg/L): 80%
- Mortality (%) (spider mites; 200 mg/L): 88%
- Corrected efficacy (%) ([3]; 25 mg/L, the 1st day after treatment): 9%
- Corrected efficacy (%) ([3]; 25 mg/L, the 3rd day after treatment): 53%
- Corrected efficacy (%) ([3]; 25 mg/L, the 7th day after treatment): 74%
- Corrected efficacy (%) ([3]; 25 mg/L, the 14th day after treatment): 77%
- Corrected efficacy (%) ([3]; 25 mg/L, the 22nd day after treatment): 75%
- Corrected efficacy (%) ([3]; 25 mg/L, the 28th day after treatment): 73%
- Corrected efficacy (%) [3, 11]: 18%
- Corrected efficacy (%) [3, 12]: 87%
- Corrected efficacy (%) [3, 13]: 92%
- Corrected efficacy (%) [3, 14]: 91%
- Corrected efficacy (%) [3, 15]: 92%
- Corrected efficacy (%) [3, 16]: 92%
- Corrected efficacy (%) [3, 5]: 25%
- Corrected efficacy (%) [3, 6]: 89%
- Corrected efficacy (%) [3, 7]: 97%
- Corrected efficacy (%) [3, 8]: 99%
- Corrected efficacy (%) [3, 9]: 99%
- Corrected efficacy (%) [3, 10]: 98%
- Mortality (%) ([1]; 5 mg/L): 100%
- Mortality (%) ([1]; 100 mg/L): 100%

SMILES: CCC(C)(C)C(=O)OC1=C(c2ccc(Cl)cc2Cl)C(=O)OC12CCCCC2 [spirodiclofen, reference compound]
- Incubation inhibition rate (%) ([4]; 0.25 mg/L): 13%
- Incubation inhibition rate (%) ([4]; 1 mg/L): 37%
- Incubation inhibition rate (%) ([4]; 5 mg/L): 100%
- Corrected efficacy (%) [3, 11]: 20%
- Corrected efficacy (%) [3, 12]: 48%
- Corrected efficacy (%) [3, 13]: 63%
- Corrected efficacy (%) [3, 14]: 80%
- Corrected efficacy (%) [3, 15]: 71%
- Corrected efficacy (%) [3, 16]: 70%

SMILES: Cc1cc(F)c(-c2cc([S+]([O-])CC(F)(F)F)c(C)cc2F)cc1[S+]([O-])CC(F)(F)F (centres unmarked) [Compound 3]
- Mortality (%) ([1]; 100 mg/L): 100%
